Assay results from PMC12521730, “Quantitative dual-isotope preclinical SPECT/CT imaging and biodistribution of the mercury-197m/g theranostic pair with [^197m/gHg]HgCl2 and a [^197m/gHg]Hg-tetrathiol complex as a platform for radiopharmaceutical development” (EJNMMI Radiopharmacy and Chemistry, 2025).

Legend:
[1] = Stable metal competition assay, AuCl3; format: physicochemical; conditions: tenfold excess to chelator, 113 h, ambient temperature
Protocol: (§1) To the [^197m/gHg][Hg(Tetrathiol)]^2− (prepared as described above) or radiolabeling controls (DMSO instead of the ligand) 10 µL of a 10 mM metal cocktail (solution of biologically relevant metals, ZnCl2, FeCl3, CuCl2, MgCl2 and CoCl2), 10 mM AuCl3 or 10 mM of HgCl2, in water was added. The final solution contained tenfold excess of stable metal to the chelators and 10^6-fold excess of the stable metal to ^197m/gHg in solution. The mixtures were incubated at RT over 113 h. The proportion of intact radiolabeled complex was monitored over the course of 113 h using iTLC-SG and DMSA solution (50 mM, pH 5) as the mobile phase. Under these conditions, uncomplexed ^197m/gHg^2+ resulting from stable metal transchelation traveled to the solvent front (Rf = 1) while intact [^197m/gHg][Hg(Tetrathiol)]^2− remained at the baseline (Rf = 0).

[2] = L-Glutathione (GSH) competition assay; format: physicochemical; conditions: 37 °C, 72 h, 2.12 mM GSH
Protocol: GSH competition assay procedures closely followed those previously developed by our group (Randhawa et al. [2023]). To the [^197m/gHg][Hg(Tetrathiol)]^2− (prepared as described above) or radiolabeling controls (DMSO instead of the ligand) was added to a 50 mM L-glutathione (GSH) solution (1:22 v/v GSH:reaction solution dilution), and the mixtures were incubated at 37 °C over 72 h. The final GSH concentration was chosen to mimic in vivo conditions within cells (2.12 mM) (Dickinson and Forman [2002]). The proportion of intact radiolabeled complex was monitored over the course of 72 h using iTLC-SG and L-glutathione (50 mM) as the mobile phase. Under these conditions, uncomplexed ^197m/gHg^2+ resulting from GSH transchelation traveled to the solvent front (Rf = 1) while intact [^197m/gHg][Hg(Tetrathiol)]^2− remained at the baseline (Rf = 0).

[3] = Stable metal competition assay, biologically relevant metal cocktail; format: physicochemical; conditions: tenfold excess to chelator, 113 h, ambient temperature
Protocol: as §1

[4] = Human serum stability assay (SDS-PAGE); format: in vitro ADME; conditions: 37 °C, 72 h
Protocol: To the [^197m/gHg][Hg(Tetrathiol)]^2− (prepared as described above) or radiolabeling controls (DMSO instead of the ligand) was diluted in human serum (1:1 v/v dilution), and the solutions were incubated at 37 °C over 72 h. The metal-complex stabilities were monitored over 72 h using SDS-PAGE following our previously reported protocols (Randhawa et al. [2023]; Tosato et al. [2024]). At each time point, an aliquot (10 μL) of the reaction mixture was mixed with Laemmli sample buffer (10 μL) and was directly loaded onto the SDS-PAGE gel. The SDS-PAGE was run at ambient temperature and 150 V until the dye front reached the resolving gel (1 h). Following electrophoresis, the gel was scanned with the radio-TLC scanner to determine the percentage of intact complex. The same protocol was used with free [^197m/gHg]Hg^2+ and the ^197m/gHg^2+-complexes diluted in phosphate-buffered saline (PBS) (5 µL; 1:1 v/v dilution) to assess their electrophoretic mobility.

[5] = LogD7.4 shake-flask measurement (n-octanol/PBS); format: physicochemical; conditions: n-octanol/PBS pH 7.4, shake-flask
Protocol: Aliquots of [^197m/gHg][Hg(Tetrathiol)]^2− (prepared as described above) (10 μL) were added to a biphasic mixture of n-octanol (700 μL) and phosphate buffered saline (PBS, 700 μL, pH 7.4). The mixture was vortexed for 2 min at ambient temperature and then separated via centrifugation (10 min, 3000 rpm). Aliquots of n-octanol (100 μL) and PBS (100 μL) were collected, and the activity in each portion was determined via gamma spectroscopy. LogD7.4 is defined as log10[(activity in n-octanol phase)/(activity in buffer phase)].

[6] = Stable metal competition assay, HgCl2; format: physicochemical; conditions: tenfold excess HgCl2
Protocol: as §1

SMILES: O=C(CC[S-])OCC(COC(=O)CC[S-])(COC(=O)CC[S-])COC(=O)CC[S-].[Hg+2] [[^197m/gHg]Hg-Tetrathiol]
- demetallation against AuCl3 [1]: no signs of demetallation
- stability when challenged against GSH [2]: no evidence of decomposition or transchelation
- demetallation against mixture of biologically relevant metals [3]: no signs of demetallation
- intact complex in human serum [4]: 86 ± 1%
- logD7.4 [5]: 0.35 ± 0.1
- intact complex in competition with HgCl2 ([6]; 113 h): 18 ± 10%
- intact complex in competition with HgCl2 ([6]; within 2 h): 71 ± 10%
